Reference: patent US12629379B2, “Pharmaceutical composition for preventing, suppressing, or treating symptom associated with allergic reaction” (Nippon Chemiphar Co., Ltd., priority 2020, dated 2026)

Experiments:
PCA model mice = experiment: Passive cutaneous anaphylaxis (PCA) in IgE-sensitized mice, Evans blue in the auricle; assay type: in vivo
Description: The mice were sensitized by subcutaneously administering 100 ng/20 μL IgE into the right ears under anesthesia. Only physiological saline was administered into the left ears.
Male C57BL/6J mice (10 to 11 weeks old, produced by Japan SLC, Inc) were used as the mice.
Note that the DNP-HSA administration was performed by tail vein administration and was arranged to be performed 24 hours after the preparation of the IgE-sensitized mice.
Note that the concentration of 65% Kolliphor EL was prepared using ethanol and a small amount of sterile water for injection (or water). In addition, the DNP-HSA administration was arranged to be performed 24 hours after the preparation of the IgE-sensitized mice.
Moreover, with the rest of the IgE-sensitized mice, a group administered with physiological saline as a control for Compound A (vehicle group) and a group administered with the solvent B as a control for Compound B (vehicle group) were prepared. […]
The PCA model mice were euthanized 30 minutes after the DNP-HSA administration, the auricles were collected, and the weights of the auricles were measured. […] Absorbance (620 nm) of the extracted Evans blue and the calibration curve was measured using the absorbance microplate reader Sunrise (Tecan Trading AG), and the concentrations were calculated.

[1] = tested on: IgE-sensitized bone marrow-derived mast cells (BMMCs); experiment: Degranulation reaction (β-hexosaminidase release rate) of IgE-sensitized BMMCs costimulated with DNP-HSA and ATP; assay type: cell-based, mice; conditions: for β-hexosaminidase release rate compared to the control BMMCs / β-hexosaminidase release rate compared to the control BMMCs (dose dependence): group (4): costimulation with ATP and DNP-HSA (10 ng/ml); for β-hexosaminidase release rate compared to the control BMMCs (dose dependence): preincubation with compound 1, 3, 10 μM
Description: (§1) The degranulation reaction was performed by obtaining a degranulation rate using a β-hexosaminidase release rate as an index. The β-hexosaminidase release rate was measured as in the section (Degranulation Experiment) below.
Bone marrow was collected from femora of male C57BL/6J mice (7 to 8 weeks old, produced by Japan SLC, Inc). Red blood cells were hemolyzed, and culture was performed in a medium containing 10% fetal bovine serum (FBS), penicillin (100 unit/ml), streptomycin (100 μg/ml), and recombinant mouse IL-3 (10 ng/ml, manufactured by PeproTech, Inc.) for 14 days. Stem cell factor (SCF) (10 ng/ml) was added to the medium from Day 15, and the culture was performed for 35 to 42 days to be used for the experiment. Whether the cells were differentiated into mast cells was confirmed by the degrees the of c-KIT and FcεRI expressions. The confirmation was performed by using FACSCant II (manufactured by BD Biosciences).
(§2) Anti-DNP-IgE antibody (clone: SPE-7, manufactured by Sigma-Aldrich, Inc.) was added to the BMMC culture solution so that the concentration reached 50 ng/ml, and the BMMCs were sensitized overnight. To be used in the experiment, the BMMCs were washed with PBS(−) and suspended in Krebs Ringer-HEPES Buffer (NaCl 130 mM, KCl 4.7 mM, NaHCO34.0 mM, KH2P4 1.2 mM, Glucose 11.5 mM, HEPES 10 mM, and CaCl2·H2O 1.8 mM) so that the concentration reached 1×10^6 cell/ml.
Then, the BMMCs were each set up into the following 4 groups. • (1) A group in which nothing was added to the BMMCs, • (2) a group in which only ATP was added to the BMMCs, • (3) a group in which only DNP-HSA (10 ng/ml) was added to the BMMCs as an antigen, and • (4) a group in which a mixed solution of ATP and DNP-HSA (10 ng/ml) was added to the BMMCs at once.
Each of the 4 groups was stimulated at 37° C. for 5 minutes and rapidly cooled on ice, and then centrifugation was performed to stop the reaction. After collecting the supernatant, precipitated cells were lysed with 0.1% triton X-100. The supernatant and the cell lysis solution (50 μL) were mixed with 10 mM 4-Nitrophenyl N-acetyl-p-D-glucosaminide (manufactured by Sigma-Aldrich, Inc.) which was a β-hexosaminidase substrate/50 mM citrate buffer (pH 4.5, 50 μL), and the mixture was incubated at 37° C. for 30 minutes. 50 mM carbonate buffer (pH 10.0, 100 μL) was added to stop the reaction, and absorbance was measured at 405/655 using an absorbance microplate reader Sunrise (manufactured by Tecan Trading AG). The β-hexosaminidase release rate was obtained from the following formula. β-hexosaminidase release rate=Absorbance of supernatant/(Absorbance of supernatant+absorbance of cell lysis station)×100
Note that, in the present Example, the numbers of specimens were all n=3, and the significant differences in the present Example are indicated with “*” or “**” in FIGS. 1 and 2, “*” indicating P<0.05, and “**” P<0.01. In addition, “*” or “**” in FIGS. 1 and 2 each indicate that there was a significant difference as a result of comparison with the control in the same group.

PSA model mice = experiment: Passive systemic anaphylaxis (PSA) in IgE-sensitized mice, body temperature change; assay type: in vivo; conditions: for body temperature decrease-suppressing effect: 10 mg/kg intraperitoneally before tail vein DNP-HSA, vs vehicle group
Description: The mice were sensitized by tail vein administration of 10 μg/200 μL IgE (physiological saline) under anesthesia.
Male C57BL/6J mice (7 to 8 or 10 to 11 weeks old, produced by Japan SLC, Inc) were used as the mice.
The DNP-HSA administration was arranged to be performed 24 hours after the preparation of the IgE-sensitized mice.
Moreover, with the rest of the IgE-sensitized mice, a group administered with physiological saline as a control for Compound A (vehicle group) and a group administered with the solvent B as a control for Compound B (vehicle group) were prepared.
PSA model mice were prepared, and anaphylaxis was induced by tail vein administration of 100 ng/200 μL (physiological saline) DNP-HSA to unanesthetized mice 24 hours after the preparation of the IgE-sensitized mice.
Inducing systemic anaphylaxis causes a rapid decrease in the body temperatures of the PSA model mice.
The measurement of the body temperature change was performed by measuring, with BAT-7001H Thermometer (Physitemp Instruments, LLC.), the rectal temperatures every 5 minutes from 0 minutes to 60 minutes after the administration, the 0 minutes being defined as the time of the DNP-HSA administration.

IgE-sensitized BMMCs = experiment: Degranulation reaction (β-hexosaminidase release rate) of IgE-sensitized BMMCs costimulated with PGE2 and ATP; assay type: cell-based, mice
Description: as §1
Setting up of BMMCs was performed according to the method described in Example 2.
as §2, with “NaHCO3 4.0” for “NaHCO34.0”
Then, the BMMCs were each set up into the following 6 groups. Note that the numbers in the parentheses below match the numbers in parentheses in FIG. 6. • (1) A group in which nothing was added to the BMMCs, • (2) a group in which only ATP was added to the BMMCs, • (3) a group in which only PGE2 (1 μM) was added to the BMMCs, • (4) a group in which a mixed solution of ATP and PGE2 (1 μM) was added to the BMMCs at once, • (5) a group in which only DNP-HSA (10 ng/ml) was added to the BMMCs as an antigen, and • (6) a group in which a mixed solution of ATP and DNP-HSA (10 ng/ml) was added to the BMMCs at once.
Each of the 6 groups was stimulated at 37° C. for 5 minutes and rapidly cooled on ice, and then centrifugation was performed to stop the reaction. After collecting the supernatant, precipitated cells were lysed with 0.1% triton X-100. […] 50 mM carbonate buffer (pH 10.0, 100 μL) was added to stop the reaction, and absorbance was measured at 405/655 using an absorbance microplate reader Sunrise (manufactured by Tecan Trading AG). The β-hexosaminidase release rate was obtained from the following formula. β-hexosaminidase release rate=Absorbance of supernatant/(Absorbance of supernatant+absorbance of cell lysis station)×100 (Test Result) […]

BMMCs = experiment: IL-6, IL-13 and TNF-α release by stimulated BMMCs (ELISA); assay type: cell-based, mice; conditions: 10 μM, pretreatment 5 minutes; stimulation 3 hours
Description: BMMCs were washed with a fresh culture solution and subjected to reactions in the presence and absence of a stimulating agent (100 μM ATP, 1 μM PGE2, 100 μM ATP+1 μM PGE2) for 3 hours.
The grouping is as shown below and matches the numbers in parentheses indicated in FIGS. 7 to 9. • (1) A group in which nothing was added to the BMMCs, • (2) a group in which only ATP was added to the BMMCs, • (3) a group in which only PGE2 was added to the BMMCs, and • (4) a group in which a mixed solution of ATP and PGE2 was added to the BMMCs at once.
Cytokines released into the reaction solution (interleukin (IL)-6, IL-13, and TNF-α) were measured using ELISA kits (Invitrogen Corporation).

[2] = 10 mg/kg intraperitoneally 30 minutes before DNP-HSA

Row | SMILES | increase in Evans Blue per auricle weight (PCA model mice; 10 mg/kg intraperitoneally 1 hour before tail vein DNP-HSA, vs vehicle group) | increase in Evans Blue per auricle weight (PCA model mice; 10 mg/kg orally administered, not shown in the drawing) | β-hexosaminidase release rate compared to the control BMMCs ([1]; concentrations of 3 μM and 10 μM) | β-hexosaminidase release rate compared to the control BMMCs (dose dependence) [1] | body temperature decrease-suppressing effect (PSA model mice) | β-hexosaminidase release rate compared to the control BMMCs (IgE-sensitized BMMCs; group (4): costimulation with ATP (0.1 mM) and PGE2 (1 μM), all concentrations of 1 μM, 3 μM, and 10 μM) | β-hexosaminidase release rate compared to the control BMMCs (dose dependence) (IgE-sensitized BMMCs; group (4): costimulation with ATP (0.1 mM) and PGE2 (1 μM), preincubation with compound 1, 3, 10 μM) | β-hexosaminidase release rate (IgE-sensitized BMMCs; groups (1) to (3) not subjected to costimulation with ATP (0.1 mM) and PGE2, compound 1, 3 or 10 μM) | β-hexosaminidase release rate compared to the control BMMCs ([1]; all concentrations of 1 μM, 3 μM, and 10 μM) | β-hexosaminidase release rate ([1]; groups (1) to (3) not subjected to costimulation with ATP and DNP-HSA (10 ng/ml), compound 1, 3 or 10 μM) | persistence of the body temperature decrease-suppressing effect (PSA model mice; [2]) [min] | time over which there was a significant difference in the body temperature decrease-suppressing effect (PSA model mice; [2]) | ATP-induced increase in IL-6 release (BMMCs) | ATP-induced increase in IL-13 release (BMMCs) | ATP-induced increase in TNF-α release (BMMCs)
1 | O=C1CC(=O)N(c2ccc(NC(=O)c3ccccc3I)cc2)c2ccc3ccccc3c2N1 [Compound B48, 5-[4-(2-iodobenzoylamino)phenyl]-1H-naphtho[1,2-b][1,4]diazepine-2,4(3H,5H)-dione] | significantly suppressed | significantly suppressed | significantly decreased | decreased in a dose-dependent manner | significant body temperature decrease-suppressing effect | – | – | – | – | – | – | – | – | – | –
2 | O=C1CC(=O)N(c2cccc(-c3noc(=S)[nH]3)c2)c2ccc3ccccc3c2N1.[Na] [Compound A17, 5-[3-(5-thioxo-4H-[1,2,4]oxadiazol-3-yl)phenyl]-1H-naphtho[1,2-b][1,4]diazepine-2,4(3H,5H)-dione sodium salt] | – | – | – | decreased in a dose-dependent manner | significant body temperature decrease-suppressing effect | significantly decreased | decreased in a dose-dependent manner | lower than 5% | significantly decreased | lower than 10% | > 60 | at least 35 minutes | suppressed | suppressed | suppressed
